The values below are quoted from earlier work in PubChem BioAssay AID1259409 (Chemical Carcinogenesis Research Information System (CCRIS), 2018).

The test system of the data set is rodent chemically induced tumor inhibition, incidence and multiplicity. Kind of data set: CCRIS tumor inhibitor studies.

The structures appear in SMILES notation.

Take `CC(=O)[O-].CC(=O)[O-].O.O.[Zn+2]`: the “tumour outcome (control, treated, inhibition, significance)” value is, setting by setting: (Carcinogen: CADMIUM CHLORIDE, 10108-64-2, Dose [Inhibitor]: 0.1 MMOL/KG IN 0.9% STERILE SALINE ADMINISTERED IN 3 SEPARATE DOSES AT 6 HR PRIOR TO, CONCURRENTLY WITH AND 18 HR POST C, Route [Inhibitor]: SUBCUTANEOUS, Species: RAT, Strain/Sex: WISTAR/MALE, Target Tissue: Type of Lesion: PROSTATE GLAND: ADENOMA, Dose [Carcinogen]: 30 UMOL/KG IN 0.9% STERILE SALINE ONCE, Promoter: NONE USED) 7/30 (23%), 6/30 (20%), 13%, not calculated; (Carcinogen: CADMIUM CHLORIDE, 10108-64-2, Dose [Inhibitor]: 0.3 MMOL/KG IN 0.9% STERILE SALINE ADMINISTERED IN 3 SEPARATE DOSES AT 6 HR PRIOR TO, CONCURRENTLY WITH AND 18 HR POST C, Route [Inhibitor]: SUBCUTANEOUS, Species: RAT, Strain/Sex: WISTAR/MALE, Target Tissue: Type of Lesion: PROSTATE GLAND: ADENOMA, Dose [Carcinogen]: 30 UMOL/KG IN 0.9% STERILE SALINE ONCE, Promoter: NONE USED) 7/30 (23%), 5/28 (18%), 22%, not calculated; (Carcinogen: CADMIUM CHLORIDE, 10108-64-2, Dose [Inhibitor]: 1.0 MMOL/KG IN 0.9% STERILE SALINE ADMINISTERED IN 3 SEPARATE DOSES AT 6 HR PRIOR TO, CONCURRENTLY WITH AND 18 HR POST C, Route [Inhibitor]: SUBCUTANEOUS, Species: RAT, Strain/Sex: WISTAR/MALE, Target Tissue: Type of Lesion: PROSTATE GLAND: ADENOMA, Dose [Carcinogen]: 30 UMOL/KG IN 0.9% STERILE SALINE ONCE, Promoter: NONE USED) 11/26 (42%), 7/28 (25%), 40%, not calculated; (Carcinogen: CADMIUM CHLORIDE, 10108-64-2, Dose [Inhibitor]: 100 PPM IN DRINKING WATER BEGINNING 2 WK PRIOR TO CARCINOGEN DOSE AND CONTINUING FOR DURATION OF STUDY (STUDY DURATION:, Route [Inhibitor]: ORAL, Species: RAT, Strain/Sex: WISTAR/MALE, Target Tissue: Type of Lesion: PROSTATE GLAND: ADENOMA, Dose [Carcinogen]: 30 UMOL/KG IN 0.9% STERILE SALINE ONCE, Promoter: NONE USED) 7/30 (23%), 7/30 (23%), 0%; (Carcinogen: CADMIUM(II) CHLORIDE, 10108-64-2, Dose [Inhibitor]: 0.1 MMOL/KG IN 0.9% STERILE SALINE ADMINISTERED IN 3 SEPARATE DOSES AT 6 HR PRIOR TO CARCINOGEN DOSE, CONCURRENTLY WITH, Route [Inhibitor]: SUBCUTANEOUS, Species: RAT, Strain/Sex: WISTAR/MALE, Target Tissue: Type of Lesion: INJECTION SITE: SARCOMA OR EPIDERMAL TUMOR, Dose [Carcinogen]: 30 UMOL/KG IN 0.9% STERILE SALINE ONCE, Promoter: NONE USED) 13/30 (43%), 9/30 (30%), 30%, not calculated; (Carcinogen: CADMIUM(II) CHLORIDE, 10108-64-2, Dose [Inhibitor]: 0.1 MMOL/KG IN 0.9% STERILE SALINE ADMINISTERED IN 3 SEPARATE DOSES AT 6 HR PRIOR TO CARCINOGEN DOSE, CONCURRENTLY WITH, Route [Inhibitor]: SUBCUTANEOUS, Species: RAT, Strain/Sex: WISTAR/MALE, Target Tissue: Type of Lesion: TESTES: LEYDIG CELL ADENOMA OR MIXED SERTOLI-LEYDIG CELL TUMOR, Dose [Carcinogen]: 30 UMOL/KG IN 0.9% STERILE SALINE ONCE, Promoter: NONE USED) 22/30 (73%), 23/30 (77%), -5%, not calculated. In addition, the “tumour outcome (control, treated, inhibition, significance)” value is recorded as 13/30 (43%), 10/29 (34%), 21%, not calculated (Carcinogen: CADMIUM(II) CHLORIDE, 10108-64-2, Dose [Inhibitor]: 0.3 MMOL/KG IN 0.9% STERILE SALINE ADMINISTERED IN 3 SEPARATE DOSES AT 6 HR PRIOR TO CARCINOGEN DOSE, CONCURRENTLY WITH, Route [Inhibitor]: SUBCUTANEOUS, Species: RAT, Strain/Sex: WISTAR/MALE, Target Tissue: Type of Lesion: INJECTION SITE: SARCOMA, Dose [Carcinogen]: 30 UMOL/KG IN 0.9% STERILE SALINE ONCE, Promoter: NONE USED); 22/30 (73%), 14/29 (48%), 34%, not calculated (Carcinogen: CADMIUM(II) CHLORIDE, 10108-64-2, Dose [Inhibitor]: 0.3 MMOL/KG IN 0.9% STERILE SALINE ADMINISTERED IN 3 SEPARATE DOSES AT 6 HR PRIOR TO CARCINOGEN DOSE, CONCURRENTLY WITH, Route [Inhibitor]: SUBCUTANEOUS, Species: RAT, Strain/Sex: WISTAR/MALE, Target Tissue: Type of Lesion: TESTES: LEYDIG CELL ADENOMA, Dose [Carcinogen]: 30 UMOL/KG IN 0.9% STERILE SALINE ONCE, Promoter: NONE USED); 13/30 (43%), 9/29 (31%), 28%, not calculated (Carcinogen: CADMIUM(II) CHLORIDE, 10108-64-2, Dose [Inhibitor]: 1.0 MMOL/KG IN 0.9% STERILE SALINE ADMINISTERED IN 3 SEPARATE DOSES AT 6 HR PRIOR TO CARCINOGEN DOSE, CONCURRENTLY WITH, Route [Inhibitor]: SUBCUTANEOUS, Species: RAT, Strain/Sex: WISTAR/MALE, Target Tissue: Type of Lesion: INJECTION SITE: SARCOMA OR HEMANGIOMA OR EPIDERMAL TUMOR, Dose [Carcinogen]: 30 UMOL/KG IN 0.9% STERILE SALINE ONCE, Promoter: NONE USED); 3/29 (10%), 1/29 (3%), 70%, not calculated (Carcinogen: CADMIUM(II) CHLORIDE, 10108-64-2, Dose [Inhibitor]: 1.0 MMOL/KG IN 0.9% STERILE SALINE ADMINISTERED IN 3 SEPARATE DOSES AT 6 HR PRIOR TO CARCINOGEN DOSE, CONCURRENTLY WITH, Route [Inhibitor]: SUBCUTANEOUS, Species: RAT, Strain/Sex: WISTAR/MALE, Target Tissue: Type of Lesion: INJECTION SITE: SARCOMA, Dose [Carcinogen]: 30 UMOL/KG IN 0.9% STERILE SALINE ONCE, Promoter: NONE USED); 4/29 (14%), 7/30 (23%), -64%, not calculated (Carcinogen: CADMIUM(II) CHLORIDE, 10108-64-2, Dose [Inhibitor]: 1.0 MMOL/KG IN 0.9% STERILE SALINE ADMINISTERED IN 3 SEPARATE DOSES AT 6 HR PRIOR TO CARCINOGEN DOSE, CONCURRENTLY WITH, Route [Inhibitor]: SUBCUTANEOUS, Species: RAT, Strain/Sex: WISTAR/MALE, Target Tissue: Type of Lesion: TESTES: LEYDIG CELL ADENOMA OR SEMINOMA, Dose [Carcinogen]: 30 UMOL/KG IN 0.9% STERILE SALINE ONCE, Promoter: NONE USED); 22/30 (73%), 3/28 (11%), 85%, not calculated (Carcinogen: CADMIUM(II) CHLORIDE, 10108-64-2, Dose [Inhibitor]: 1.0 MMOL/KG IN 0.9% STERILE SALINE ADMINISTERED IN 3 SEPARATE DOSES AT 6 HR PRIOR TO CARCINOGEN DOSE, CONCURRENTLY WITH, Route [Inhibitor]: SUBCUTANEOUS, Species: RAT, Strain/Sex: WISTAR/MALE, Target Tissue: Type of Lesion: TESTES: LEYDIG CELL ADENOMA, Dose [Carcinogen]: 30 UMOL/KG IN 0.9% STERILE SALINE ONCE, Promoter: NONE USED). Further, the “tumour outcome (control, treated, inhibition, significance)” value is 13/30 (43%), 1/30 (3%), 93%, not calculated (Carcinogen: CADMIUM(II) CHLORIDE, 10108-64-2, Dose [Inhibitor]: 100 PPM IN DRINKING WATER BEGINNING 2 WK PRIOR TO CARCINOGEN DOSE AND CONTINUING FOR DURATION OF STUDY (STUDY DURATION:, Route [Inhibitor]: ORAL, Species: RAT, Strain/Sex: WISTAR/MALE, Target Tissue: Type of Lesion: INJECTION SITE: SARCOMA AND FIBROMA, Dose [Carcinogen]: 30 UMOL/KG IN 0.9% STERILE SALINE ONCE, Promoter: NONE USED) and 22/30 (73%), 25/30 (83%), -14%, not calculated (Carcinogen: CADMIUM(II) CHLORIDE, 10108-64-2, Dose [Inhibitor]: 100 PPM IN DRINKING WATER BEGINNING 2 WK PRIOR TO CARCINOGEN DOSE AND CONTINUING FOR DURATION OF STUDY (STUDY DURATION:, Route [Inhibitor]: ORAL, Species: RAT, Strain/Sex: WISTAR/MALE, Target Tissue: Type of Lesion: TESTES: LEYDIG CELL ADENOMA, Dose [Carcinogen]: 30 UMOL/KG IN 0.9% STERILE SALINE ONCE, Promoter: NONE USED).

`COc1ccc(CCN(C)CCCC(C#N)(c2ccc(OC)c(OC)c2)C(C)C)cc1OC` (configuration not stated): the “tumour outcome (control, treated, inhibition, significance)” value reads like this: (Carcinogen: 7,12-DIMETHYLBENZ[A]ANTHRACENE, 57-97-6, Dose [Inhibitor]: 0, 3.5 MG/KG/D IN DRINKING WATER (STUDY DURATION: 20 WK), Route [Inhibitor]: ORAL, Species: RAT, Strain/Sex: SPRAGUE-DAWLEY/FEMALE, Target Tissue: Type of Lesion: MAMMARY GLAND: TUMOR, Dose [Carcinogen]: 50 MG/KG ONCE, Promoter: NONE USED) 9/20 (45%), 3/20(15%), 67%, p< 0.05; (Carcinogen: 7,12-DIMETHYLBENZ[A]ANTHRACENE, 57-97-6, Dose [Inhibitor]: 0, 2 UMOL 1/WK FOR 21 WK APPLIED 1 HR POST EACH PROMOTER DOSE (STUDY DURATION: 21 WK), Route [Inhibitor]: DERMAL, Species: MOUSE, Strain/Sex: SENCAR/FEMALE, Target Tissue: Type of Lesion: SKIN: PAPILLOMA, Dose [Carcinogen]: 25 NMOL ONCE, Promoter: CHRYSAROBIN, 491-58-7) 90%, 82%, 9%, not significant; (Carcinogen: N-NITROSOMORPHOLINE, 59-89-2, Dose [Inhibitor]: 0, 20 MG/KG BW IN 0.9% SALINE 1/2 D FOR DURATION OF STUDY (STUDY DURATION: 16 WK), Route [Inhibitor]: INTRAPERITONEAL, Species: RAT, Strain/Sex: SPRAGUE-DAWLEY/MALE, Target Tissue: Type of Lesion: LIVER: HEPATOCELLULAR CARCINOMA, Dose [Carcinogen]: 175 MG/L IN DRINKING WATER FOR 8 WK, Promoter: NONE USED) 10/20 (50%), 3/20 (15%), 70%, p<0.05.
